Columns and labels:
[1] = pig, in vivo
Source text: Twenty-two domestic pigs weighing 15-20 kg were acclimated to lab conditions over 4 days. The pigs were fed a standard pig diet, which followed energetic requirements for these animals (Nutrient Requirements of Swine, 9th, 1998, Subcommittee on Swine Nutrition, National Research Council) and water ad libitum. Animals were randomly assigned into group C [6 pigs, receiving a glucosaline solution (Braun cat No 622647), 5% glucose, 0.9% NaCI], group G [8 pigs, receiving the same glucosaline solution fortified with 8 g/l of Gln, (Sigma cat No G-3126)], and group N [8 pigs, receiving the same glucosaline solution fortified with 10 g/l of NAQ, (Sigma cat No A-9125)]. Before surgery, animals were fasted 15 h. The day of experiment, animals were weighed and anaesthetized using Stresnil® and penthotal. […]
The analysis for N-acetyl-L-glutamine was conducted as follows. […] The detection and quantification of N-acetyl-L-glutamine was monitored at 210 nm.
The analysis for glutamine and glutamate was conducted as follows. […] After 1 minute the sample was diluted to 1 mL and injected into the HPLC system, consisting of a 2690 Separation Module, fluorescence detector and a SupelcoSil LC-18 column (250×4 mm, 3 micrometers). […] The detection and quantification of glutamate and glutamine was accomplished using an excitation wavelength of 250 nm and monitoring emission at 395 nm. […]

[2] = Feeding pig model (absorption as component of diet); type: in vivo
Source text: Fifteen pigs, 15-20 kg in weight were provided by a certified farm. The pigs were acclimated to the laboratory for 2 days. A standard pig diet and water was provided ad libitum. After acclimation, the pigs were randomly assigned into group C [5 pigs, receiving a standard pig diet plus 3 g/kg of Cr2O3, (Merck cat No 1.02483)], group G [5 pigs, receiving diet C plus 8 g/kg of Gln, (Ajimoto)], and group N [5 pigs, receiving diet C plus 10.5 g/kg of N-acetyl-L-glutamine, (Flamma)]. During the experimental phase of the study, each group received 1000 grams of their respective diet per day per animal, fed in 3 portions and water was provided ad libitum. This experimental phase of feeding lasted 5 days.
On the day of experiment, animals were weighed and received the standard diet intake (333 g diet per animal) at 7:00 a.m. Three hours after feeding, animals were weighed, sedated and bled through jugular vein puncture. Animals were quickly opened by abdominal medium sagital incision and the content of the duodenum, medium jejunum (about 2 meters from the ligament of Treitz) and ileum (30 cm from the ileocecal valve) were taken, frozen in liquid nitrogen, lyophylized, and stored at −80° C. until analysis. Samples of liver and kidney were removed, dissected of visible fat and connective tissue, quickly frozen in liquid nitrogen and stored at −80° C. until analysis. […]
Intestinal content was analyzed for glutamine, N-acetyl-L-glutamine and chromium (III) oxide. […]
For analysis of glutamine, the lyophilized intestinal content was treated and analyzed as described in the intestinal loop model above.
Chromium was incorporated into the diets to provide a correction factor to reflect content per kg of original diet. […] The absorbance at 372 nm against demineralized water as a blank was determined. The absorbance readings were converted to mg of Cr2O3 by employing the equation of a standard curve prepared by analyzing 0, 50, 100, 200 and 500 microliters of a standard chromium solution (2.9034 g of K2Cr2O7/L, which is equivalent to 1.5 g/L of Cr2O3).

[3] = N-acetyl-L-glutamine diet (55.8 mmole/kg diet), pigs, 3 hours after feeding

Q: With `CC(=O)N[C@@H](CCC(N)=O)C(=O)O` [N-acetyl-L-glutamine] as the compound, how does the “Glutamine in portal blood, N group versus G group” value [1] read?
A: no significant differences between G and N

Q: And the “N-acetyl-L-glutamine in distal ileum content” value [2, 3]?
A: 12.8 ± 2.1 mmole/kg original diet

Q: And the “N-acetyl-L-glutamine in medium jejunum content” value [2, 3]?
A: 10.3 ± 2.4 mmole/kg original diet

Q: What about the “Absorption between the medial jejunum and the distal ilium” value ([2]; pig, in vivo) of the same compound?
A: not observed

Reference: patent US20030134851A1, “Methods and compositions for providing glutamine” (priority 2001, published 2003)
